No end group written: not given here.
Key:
[1] = system: Rat bone marrow-derived stem cells (mesenchymal stem cells); assay: Evaluation of cell growth-promoting activity, WST-8 colorimetric method (Example 5); assay type: cell-based; settings: WST-8 absorbance at 450 nm, peptide approximately 2 μM, bFGF 10 ng/mL; for OD450 at the start of cultivation: day 0; for OD450 after 4 days: day 4
Description: (§1) Experimental sections were set up that used the cell growth-promoting peptides obtained in Example 4 (samples 22 to 42) as a cell growth promoter and that used a commercially available bFGF as a cell growth promoter as a comparative example. For the control, a peptide-free section (the bFGF was also not added) was set up.
(§2) The details of the evaluation testing are provided below. Each synthesized sample peptide was dissolved in PBS (phosphate-buffered physiological saline) to prepare a stock solution with a peptide concentration of 1 mM.
(§3) Rat bone marrow-derived stem cells (mesenchymal stem cells) were used as the test cells. Specifically, the test stem cells were cultured by passage on Dulbecco's MEM medium (DMEM medium: Gibco product) containing 10% fetal bovine serum (FBS: Gibco product), 2 mM of L-glutamine, 50 unit/mL of penicillin, and 50 μg/mL of streptomycin. From the second passage to the fourth passage (passages 2 to 4) were used in this evaluation testing.
(§4) Thus, the test stem cells were preliminarily recovered by treatment with a 0.05% trypsin-0.53 mM EDTA solution; a test stem cell solution, prepared with the DMEM medium containing 10 ng/mL of bFGF to provide 1×10^4 cells/mL, was seeded to each well of a 96-well plate to provide a cell count of 1×10^3 per well; and pre-cultivation was carried out overnight. The amount of medium was brought to 100 μL per well for this.
(§5) The medium in each well was then exchanged for fresh medium to which a stock solution of a peptide selected from sample 22 to 42 had been added, so as to give a concentration of the peptide in each well of approximately 2 μM. For comparison, in some wells the medium in the well was exchanged for fresh medium to which a commercially available bFGF (product of PeproTech) had been added to give a concentration of 10 ng/mL (the bFGF experimental section in Table 6).
(§6) After the addition of the sample peptide or bFGF as indicated above, the 96-well plate was placed in a CO2 incubator and cultivation at quiescence was carried out at 37° C. under 5% CO2. Medium exchange was performed every other day. The exchange medium was the same as that used at the start of cultivation (i.e., the same sample peptide or bFGF was also added to the exchange medium as in the sample peptide addition section or bFGF addition section).
During this cultivation test, a “water-soluble tetrazolium salt (WST-8)” was added as a chromogenic reagent to some wells at the start of cultivation (day 0) and at four days after the start of cultivation (day 4). After incubation for 2 hours after the addition, the cell culture fluid to which the chromogenic reagent had been added was recovered. The extent of cell growth was evaluated by a colorimetric method in which, based on reduction of the tetrazolium salt, the absorbance (OD450) at a wavelength of 450 nm was measured.

[2] = system: Rat bone marrow-derived stem cells (mesenchymal stem cells); assay: Evaluation of cell growth-promoting activity, WST-8 colorimetric method (Example 2); assay type: cell-based; settings: WST-8 absorbance at 450 nm, peptide approximately 2 μM, bFGF 10 ng/mL; for OD450 at the start of cultivation: day 0; for OD450 after 2 days: day 2; for OD450 after 4 days: day 4
Description: as §1, with “1” for “4”, “1” for “22”, “21)” for “42)”
as §2, §3, §4
as §5, with “1” for “22”, “21” for “42”, “3).” for “6).”
as §6
During this cultivation test, a “water-soluble tetrazolium salt (WST-8)” was added as a chromogenic reagent to some wells at the start of cultivation (day 0), at two days after the start of cultivation (day 2), and at four days after the start of cultivation (day 4). After incubation for 2 hours after the addition, the cell culture fluid to which the chromogenic reagent had been added was recovered. The extent of cell growth was evaluated by a colorimetric method in which, based on reduction of the tetrazolium salt, the absorbance (OD450) at a wavelength of 450 nm was measured.

| Sequence | OD450 at the start of cultivation [1] | OD450 after 4 days [1] | OD450 at the start of cultivation [2] | OD450 after 2 days [2] | OD450 after 4 days [2] |
| --- | --- | --- | --- | --- | --- |
| AAWTARAGKKRTLRKNDRKKR (AAWTARAGKKRTLRKNDRKKR-NH2) [compound 31] | 0.051 | 0.401 |  |  |  |
| AAWTVRAGKKRTLRKNDRKKR (AAWTVRAGKKRTLRKNDRKKR-NH2) [compound 10] |  |  | 0.058 | 0.149 | 0.389 |
| ALLLLAAWTARAGKKRTLRKNDRKKR (ALLLLAAWTARAGKKRTLRKNDRKKR-NH2) [compound 26] | 0.051 | 0.509 |  |  |  |
| ALLLLAAWTVRAGKKRTLRKNDRKKR (ALLLLAAWTVRAGKKRTLRKNDRKKR-NH2) [compound 5] |  |  | 0.058 | 0.189 | 0.483 |
| AWTARAGKKRTLRKNDRKKR (AWTARAGKKRTLRKNDRKKR-NH2) [compound 32] | 0.051 | 0.433 |  |  |  |
| AWTVRAGKKRTLRKNDRKKR (AWTVRAGKKRTLRKNDRKKR-NH2) [compound 11] |  |  | 0.058 | 0.169 | 0.403 |
| GLALLLLAAWTARAGKKRTLRKNDRKKR (GLALLLLAAWTARAGKKRTLRKNDRKKR-NH2) [compound 24] | 0.051 | 0.327 |  |  |  |
| LAAWTARAGKKRTLRKNDRKKR (LAAWTARAGKKRTLRKNDRKKR-NH2) [compound 30] | 0.051 | 0.413 |  |  |  |
| LAAWTVRAGKKRTLRKNDRKKR (LAAWTVRAGKKRTLRKNDRKKR-NH2) [compound 9] |  |  | 0.058 | 0.179 | 0.398 |
| LALLLLAAWTARAGKKRTLRKNDRKKR (LALLLLAAWTARAGKKRTLRKNDRKKR-NH2) [compound 25] | 0.051 | 0.319 |  |  |  |
| LALLLLAAWTVRAGKKRTLRKNDRKKR (LALLLLAAWTVRAGKKRTLRKNDRKKR-NH2) [compound 4] |  |  | 0.058 | 0.136 | 0.304 |
| LLAAWTARAGKKRTLRKNDRKKR (LLAAWTARAGKKRTLRKNDRKKR-NH2) [compound 29] | 0.051 | 0.434 |  |  |  |
| LLAAWTVRAGKKRTLRKNDRKKR (LLAAWTVRAGKKRTLRKNDRKKR-NH2) [compound 8] |  |  | 0.058 | 0.168 | 0.418 |
| LLLAAWTARAGKKRTLRKNDRKKR (LLLAAWTARAGKKRTLRKNDRKKR-NH2) [compound 28] | 0.051 | 0.532 |  |  |  |
| LLLAAWTVRAGKKRTLRKNDRKKR (LLLAAWTVRAGKKRTLRKNDRKKR-NH2) [compound 7] |  |  | 0.058 | 0.176 | 0.499 |
| LLLLAAWTARAGKKRTLRKNDRKKR (LLLLAAWTARAGKKRTLRKNDRKKR-NH2) [compound 27] | 0.051 | 0.511 |  |  |  |
| LLLLAAWTVRAGKKRTLRKNDRKKR (LLLLAAWTVRAGKKRTLRKNDRKKR-NH2) [compound 6] |  |  | 0.058 | 0.186 | 0.483 |
| MLPGLALGKKRTLRKNDRKKR (MLPGLALGKKRTLRKNDRKKR-NH2) [compound 42] | 0.051 | 0.346 |  |  |  |
| MLPGLALLGKKRTLRKNDRKKR (MLPGLALLGKKRTLRKNDRKKR-NH2) [compound 41] | 0.051 | 0.311 |  |  |  |

| Sequence | OD450 at the start of cultivation [1] | OD450 after 4 days [1] | OD450 at the start of cultivation [2] | OD450 after 2 days [2] | OD450 after 4 days [2] |
| --- | --- | --- | --- | --- | --- |
| MLPGLALLLGKKRTLRKNDRKKR (MLPGLALLLGKKRTLRKNDRKKR-NH2) [compound 40] | 0.051 | 0.487 |  |  |  |
| MLPGLALLLLAAGKKRTLRKNDRKKR (MLPGLALLLLAAGKKRTLRKNDRKKR-NH2) [sample 37] | 0.051 | 0.571 |  |  |  |
| MLPGLALLLLAAWGKKRTLRKNDRKKR (MLPGLALLLLAAWGKKRTLRKNDRKKR-NH2) [compound 36] | 0.051 | 0.288 |  |  |  |
| MLPGLALLLLAAWTAGKKRTLRKNDRKKR (MLPGLALLLLAAWTAGKKRTLRKNDRKKR-NH2) [compound 34] | 0.051 | 0.243 |  |  |  |
| MLPGLALLLLAAWTARAGKKRTLRKNDRKKR (MLPGLALLLLAAWTARAGKKRTLRKNDRKKR-NH2) [sample 22] | 0.051 | 0.241 |  |  |  |
| MLPSLALGKKRTLRKNDRKKR (MLPSLALGKKRTLRKNDRKKR-NH2) [compound 21] |  |  | 0.058 | 0.155 | 0.332 |
| MLPSLALLGKKRTLRKNDRKKR (MLPSLALLGKKRTLRKNDRKKR-NH2) [compound 20] |  |  | 0.058 | 0.158 | 0.320 |
| MLPSLALLLGKKRTLRKNDRKKR (MLPSLALLLGKKRTLRKNDRKKR-NH2) [compound 19] |  |  | 0.058 | 0.163 | 0.478 |
| MLPSLALLLLAAGKKRTLRKNDRKKR (MLPSLALLLLAAGKKRTLRKNDRKKR-NH2) [compound 16] |  |  | 0.058 | 0.172 | 0.525 |
| MLPSLALLLLAAWGKKRTLRKNDRKKR (MLPSLALLLLAAWGKKRTLRKNDRKKR-NH2) [compound 15] |  |  | 0.058 | 0.133 | 0.276 |
| MLPSLALLLLAAWTGKKRTLRKNDRKKR (MLPSLALLLLAAWTGKKRTLRKNDRKKR-NH2) [compound 14] |  |  | 0.058 | 0.132 | 0.293 |
| MLPSLALLLLAAWTVGKKRTLRKNDRKKR (MLPSLALLLLAAWTVGKKRTLRKNDRKKR-NH2) [compound 13] |  |  | 0.058 | 0.123 | 0.232 |
| MLPSLALLLLAAWTVRAGKKRTLRKNDRKKR (MLPSLALLLLAAWTVRAGKKRTLRKNDRKKR-NH2) [sample 1] |  |  | 0.058 | 0.132 | 0.243 |
| MLPSLALLLLAGKKRTLRKNDRKKR (MLPSLALLLLAGKKRTLRKNDRKKR-NH2) [compound 17] |  |  | 0.058 | 0.176 | 0.468 |
| MLPSLALLLLGKKRTLRKNDRKKR (MLPSLALLLLGKKRTLRKNDRKKR-NH2) [compound 18] |  |  | 0.058 | 0.184 | 0.505 |
| PSLALLLLAAWTVRAGKKRTLRKNDRKKR (PSLALLLLAAWTVRAGKKRTLRKNDRKKR-NH2) [sample 2] |  |  | 0.058 | 0.136 | 0.297 |
| SLALLLLAAWTVRAGKKRTLRKNDRKKR (SLALLLLAAWTVRAGKKRTLRKNDRKKR-NH2) [sample 3] |  |  | 0.058 | 0.139 | 0.293 |
| WTVRAGKKRTLRKNDRKKR (WTVRAGKKRTLRKNDRKKR-NH2) [compound 12] |  |  | 0.058 | 0.181 | 0.388 |
